{"source": "patent US8969622B2", "about": "“Dendritic molecular intracellular transporters and methods of making and using same” (Vanderbilt University, priority 2006, dated 2015)", "test_system": "human microvascular endothelial cells (HMEC)", "experiment": "Internalization into human microvascular endothelial cells (HMEC), temperature effect and controls", "type": "cell-based", "conditions": "10 uM, 60 min, 37° C.", "experimental": "The human microvascular endothelial cells (HMEC) cells were incubated with conjugates (10 uM) for 2.5 min at 4° C. or at 37° C.\nThe HMEC cells were incubated with conjugates (1 uM) for 30 min at 4° C. or at 37° C.\n(b) The HMEC cells were incubated with Boc-protected guanidinylated FD-2 (10 uM) for 60 min at 37° C.\nInternalization of FD-1 and FD-2 in mammalian cells was assessed using two different cell lines and a previously described method [Futaki, S.; Nakase, I.; Suzuki, T.; Youjun, Y.; Sugiura, Y. Biochemistry 2002, 41, 7925.] with NIH-3T3 fibroblasts and HMEC (human microvascular endothelial cells) and a Zeiss LSM 510 confocal microscope. […] [Futaki, S.; Nakase, I.; Suzuki, T.; Youjun, Y.; Sugiura, Y. Biochemistry 2002, 41, 7925.; Vivès, E.; Brodin, P.; Lebleu, B. J. Biol. Chem. 1997, 272, 16010.] Furthermore, the extent of internalization increased in an incubation time-dependent manner, and it was observed that after just 10 min, the fluorescence intensity of cells treated with FD-2 was near saturation. […] Without wishing to be bound by theory, it is believed that the length of the spacer at the terminal generation of the dendrimer can not only control the uptake rate, [Wender, P. A.; Kreider, E.; Pelkey, E. T.; Steinman, L.; Rothbard, J. B.; VanDeusen, C. L. Org. Lett. 2005, 7, 4815.] but also regulate the subcellular localization of the molecule and its putative cargo. […]", "data": [{"substance": "fluorescein isothiocyanate [free FITC]", "values": [{"measurement": "fluorescence of treated cells (control experiments)", "result": "no"}]}]}
